# Test results reported in patent publication US10882845B2, “Crystal form of deuterated AZD9291, preparation method therefor, and use thereof” (TYK MEDICINES INC., priority 2017, dated 2021).
# Where a name gives a salt, the structure may show the parent alone.
# Assays:
# [1] = Accelerated stability test (drug accelerated stability test chamber, 40° C., relative humidity 75%); type: physicochemical; details: 75% RH
# [2] = Stability at room temperature; type: physicochemical; details: for Purity (HPLC) / character (visual inspection) / hygroscopicity (visual inspection): room temperature
# Description: The crystal form of the compound of the formula (I) or the formula (II) obtained by the method 1 or the method 2 of the present invention is not changed in moisture absorption or the like after being left at room temperature for 1 month. […] Its purity was as high as 99.83%, and the content of each single impurity was below 0.1%, which was suitable for the subsequent development of active pharmaceutical ingredient and preparations as well as subsequent pharmacokinetic experiments and zoological experiments.
# The crystal form of deuterated AZD9291 mesylate prepared in the present invention was placed in a laboratory at room temperature, and the stability at room temperature was examined.
# [3] = in vivo; details: rat, po
# Description: Moreover, a single impurity is below 0.1%, which is in line with requirements for the development of API and CMC.
# The high bioavailability of oral administration proves that this crystal form is suitable for the development of oral preparations.
# [4] = Accelerated stability test (drug accelerated stability test chamber, 40° C., relative humidity 75%); type: physicochemical; details: 75% RH; remark: listed apart in the source
# Procedure: The stability of the crystal form of the compound represented by the formula (I) or the formula (II) was further measured, and the apparatus used was a drug accelerated stability test chamber; the accelerated test condition was 40° C., and the relative humidity was 75%. After an accelerated test for six months in the drug accelerated stability test chamber was completed, a sample of the crystal form of the compound of the formula (I) or the formula (II) was obtained and subjected to X-ray powder diffraction analysis, and the obtained X-ray powder diffraction pattern was as shown in FIG. 2.
# [5] = Passage through the blood-brain barrier into the brain; type: in vivo; details: in the body
# Description: At present, some deuterated AZD9291 compounds have been reported in CN104140418B and CN105237515A, but no crystal forms of the pharmaceutically acceptable salt of deuterated AZD9291 have been reported. A crystal form is a solid state of a drug. The study of the drug crystal form is the study of the basic state of the drug. It is impossible to find a crystal form of a drug (solid material) that is more suitable for treating the disease, unless having a full and comprehensive understanding of the crystal form of the chemical drug. The crystal form of a drug can affect physical and chemical properties of the drug, and directly affect the clinical basis of the drug to play a role in the treatment of disease. At the same time, due to the solubility of some drugs, such drugs shall be made into a pharmaceutically acceptable salt, which can greatly improve its solubility and improve the absorption and utilization of drugs. The applicant has been engaged in the research of drugs for lung cancer, started drug research on EGFR targets very early, and has obtained a series of research results6, such as patent applications CN102659692, U.S. Ser. No. 08/916,572, CN107382879, WO2017219500 and WO2018050052. […] Therefore, it has no effect on tumors metastasized to the brain. […]
smiles,measurement,setting,value
[2H]C([2H])([2H])n1cc(-c2ccnc(Nc3cc(NC(=O)C=C)c(N(C)CCN(C)C)cc3OC)n2)c2ccccc21 [deuterated AZD9291 mesylate crystal form],character (visual inspection),[1]; month 0,off-white
same,compound purity (HPLC),[1]; month 0,"99%,"
same,deuteration rate (HNMR),[1]; month 0,rate 99%
same,character (visual inspection),[1]; month 1,"off-white,"
same,compound purity (HPLC),[1]; month 1,"99%,"
same,deuteration rate (HNMR),[1]; month 1,rate 99%
same,hygroscopicity (visual inspection),[1]; month 1,no
same,character (visual inspection),[1]; month 2,"off white,"
same,compound purity (HPLC),[1]; month 2,"99%,"
same,deuteration rate (HNMR),[1]; month 2,rate 99%
same,hygroscopicity (visual inspection),[1]; month 2,no
same,character (visual inspection),[1]; month 3,"off white,"
same,compound purity (HPLC),[1]; month 3,"99%,"
same,deuteration rate (HNMR),[1]; month 3,rate 99%
same,hygroscopicity (visual inspection),[1]; month 3,no
same,character (visual inspection),[1]; month 4,"off white,"
same,compound purity (HPLC),[1]; month 4,"99%,"
same,deuteration rate (HNMR),[1]; month 4,rate 99%
same,hygroscopicity (visual inspection),[1]; month 4,no
same,character (visual inspection),[1]; month 6,"off white,"
same,compound purity (HPLC),[1]; month 6,"99%,"
same,deuteration rate (HNMR),[1]; month 6,rate 99%
same,hygroscopicity (visual inspection),[1]; month 6,no
same,change in moisture absorption or the like,[2]; left at room temperature for 1 month,not changed
same,Purity (HPLC),[2]; day 0,99.73%
same,character (visual inspection),[2]; day 0,off-white powder
same,Purity (HPLC),[2]; day 15,99.70%
same,character (visual inspection),[2]; day 15,off-white powder
same,hygroscopicity (visual inspection),[2]; day 15,(no hygroscopicity)
same,Purity (HPLC),[2]; day 30,99.74%
same,character (visual inspection),[2]; day 30,off-white powder
same,hygroscopicity (visual inspection),[2]; day 30,(no hygroscopicity)
same,AUC,[3],1270 ng·h/mL
same,bioavailability,[3],30.9%
same,highest blood concentration,[3],117 ng/mL
same,crystal form (X-ray powder diffraction),"[4]; month 6, listed as crystal form of the compound represented by the formula (I) or the formula (II)",no crystal
same,crystal form (X-ray powder diffraction),"[4]; month 6, listed as crystal form of the present invention",maintained
C=CC(=O)Nc1cc(Nc2nccc(-c3cn(C)c4ccccc34)n2)c(OC)cc1N(C)CCN(C)C [compound of formula III],passage through the blood-brain barrier,[5],can enter the brain through the blood-brain barrier
C=CC(=O)Nc1cc(Nc2nccc(-c3c[nH]c4ccccc34)n2)c(OC)cc1N(C)CCN(C)C [AZ5104],passage through the blood-brain barrier,[5],cannot pass through the blood-brain barrier
